Measured values taken from ChEMBL document CHEMBL1146254, “Identification of Sansalvamide a analog potent against pancreatic cancer cell lines” (Bioorg Med Chem Lett, 2007).
Where a SMILES comes first, the peptide text is derived from it. [ ]: non-standard residue; d: D form. Cha = N[C@@H](CC1CCCCC1)C(=O)O; NMeL = CN[C@@H](CC(C)C)C(=O)O; dNMeL = CN[C@H](CC(C)C)C(=O)O; dNMeV = CN[C@@H](C(=O)O)C(C)C; dAbu = CC[C@@H](N)C(=O)O

What was measured:
Details in all cases: Homo sapiens
[1] = Cytotoxicity against PL45 cells at 5 uM by [3H]thymidine inhibition assay; format: functional, cell-based
[2] = test system: BXPC-3; assay: Cytotoxicity against BxPC3 cells at 5 uM by [3H]thymidine inhibition assay; format: functional, cell-based
[3] = Cytotoxicity against WS1 cells; format: cell-based

Compound CC(C)C[C@@H]1NC(=O)[C@H](Cc2ccccc2)NC(=O)[C@H](CC(C)C)NC(=O)[C@@H](C(C)C)NC(=O)[C@H](CCCCNC(=O)Cc2ccccc2)NC1=O has an inhibition at 5 µM [1] of 29% and an inhibition at 5 µM [2] of 29%.

CC(C)C[C@@H]1NC(=O)[C@H](Cc2ccccc2)NC(=O)[C@@H](CC(C)C)N(C)C(=O)[C@H](CC(C)C)NC(=O)[C@H](CC(C)C)NC1=O showed an inhibition at 5 µM [1] of 5% and an inhibition at 5 µM [2] of 2%.

Compound CC(C)C[C@@H]1NC(=O)[C@H](CC(C)C)NC(=O)[C@H](CC(C)C)NC(=O)[C@@H](Cc2c[nH]c3ccccc23)NC(=O)[C@H](CC(C)C)NC1=O has an inhibition at 5 µM [1] of 18% and an inhibition at 5 µM [2] of 30%.

With CC(C)C[C@@H]1NC(=O)[C@H](Cc2ccccc2)NC(=O)[C@H](CC(C)C)N(C)C(=O)[C@H](CC(C)C)NC(=O)[C@H](CC(C)C)NC1=O the inhibition at 5 µM [1] was 27% and the inhibition at 5 µM [2] was 46%.

CC(C)C[C@@H]1NC(=O)[C@H](CC(C)C)NC(=O)[C@H](Cc2ccccc2)NC(=O)[C@@H](CC(C)C)NC(=O)[C@H](CC(C)C)NC1=O gave an inhibition at 5 µM [1] of 41% and an inhibition at 5 µM [2] of 34%.

Work on CC(C)C[C@@H]1NC(=O)[C@H](Cc2ccccc2)NC(=O)[C@H](CC(C)C)NC(=O)[C@H](CC(C)C)NC(=O)[C@H](CC(C)C)NC1=O yielded an IC50 [1] of 70 µM, an inhibition at 5 µM [1] of 25% and an IC50 [2] of 25 µM. It also gave an inhibition at 5 µM [2] of 42% and an IC50 [3] of 200 µM.

CC(C)C[C@@H]1NC(=O)[C@H](CC(C)C)NC(=O)[C@H](Cc2ccccc2)NC(=O)[C@@H](CO)NC(=O)[C@H](CC(C)C)NC1=O showed an inhibition at 5 µM [1] of 32% and an inhibition at 5 µM [2] of 25%.

For CC(C)C[C@@H]1NC(=O)[C@H](CC(C)C)NC(=O)[C@H](Cc2ccccc2)N(C)C(=O)[C@H](CC(C)C)NC(=O)[C@H](CC(C)C)NC1=O, the IC50 [1] was 5 µM, the inhibition at 5 µM [1] was 44% and the IC50 [2] was 2 µM. It also gave an inhibition at 5 µM [2] of 62% and an IC50 [3] of 200 µM.

For CC(C)C[C@@H]1NC(=O)[C@H](CC(C)C)NC(=O)[C@H](CC(C)C)NC(=O)[C@@H](Cc2ccccc2)NC(=O)[C@H](CC(C)C)NC1=O, the IC50 [1] was 5 µM, the inhibition at 5 µM [1] was 48% and the IC50 [2] was 2 µM. It also gave an inhibition at 5 µM [2] of 64% and an IC50 [3] of 200 µM.

With CC(C)C[C@@H]1NC(=O)[C@H](CC(C)C)NC(=O)[C@H](Cc2ccccc2)NC(=O)[C@@H](Cc2ccccc2)NC(=O)[C@H](CC(C)C)NC1=O the inhibition at 5 µM [1] was 45% and the inhibition at 5 µM [2] was 21%.

With CC(C)C[C@@H]1NC(=O)[C@H](CC(C)C)NC(=O)[C@H](CC(C)C)NC(=O)[C@@H](Cc2ccc(O)cc2)NC(=O)[C@H](CC(C)C)NC1=O the inhibition at 5 µM [1] was 46% and the inhibition at 5 µM [2] was 33%.

CC(C)C[C@@H]1NC(=O)[C@H](Cc2ccccc2)NC(=O)[C@H](CC(C)C)NC(=O)[C@@H](C(C)C)NC(=O)[C@H](CCCCN)NC1=O (cyclo(FLK[dV]L)) showed an inhibition at 5 µM [1] of 20% and an inhibition at 5 µM [2] of 16%.

With CC[C@H]1NC(=O)[C@H](CC(C)C)NC(=O)[C@H](CC(C)C)NC(=O)[C@H](Cc2ccccc2)NC(=O)[C@H](CC(C)C)NC1=O (cyclo(FLL[dAbu]L)) the inhibition at 5 µM [1] was 12% and the inhibition at 5 µM [2] was 17%.

With CC(C)C[C@@H]1NC(=O)[C@H](Cc2ccccc2)NC(=O)[C@H](CC(C)C)NC(=O)[C@@H](Cc2ccccc2)NC(=O)[C@H](CC(C)C)NC1=O (cyclo(FLL[dF]L)) the inhibition at 5 µM [1] was 33% and the inhibition at 5 µM [2] was 8%.

With CC(C)C[C@@H]1NC(=O)[C@H](Cc2ccccc2)NC(=O)[C@H](CC(C)C)NC(=O)[C@@H](C(C)C)N(C)C(=O)[C@H](CC(C)C)NC1=O (cyclo(FLL[dNMeV]L)) the inhibition at 5 µM [1] was 29% and the inhibition at 5 µM [2] was 34%.

For CC(C)C[C@@H]1NC(=O)[C@H](Cc2ccccc2)NC(=O)[C@H](CC(C)C)NC(=O)[C@@H](CO)NC(=O)[C@H](CC(C)C)NC1=O (cyclo(FLL[dS]L)), the inhibition at 5 µM [1] was 25% and the inhibition at 5 µM [2] was 22%.

For CC(C)C[C@@H]1NC(=O)[C@H](Cc2ccccc2)NC(=O)[C@H](CC(C)C)NC(=O)[C@@H](C(C)C)NC(=O)[C@H](CC(C)C)NC1=O (cyclo(FLL[dV]L)), the IC50 [1] was 1.4 µM, the inhibition at 5 µM [1] was 74% and the IC50 [2] was 5 µM. The inhibition at 5 µM [2] was 50% and the IC50 [3] was 20 µM.

CC(C)C[C@@H]1NC(=O)[C@H](Cc2ccccc2)NC(=O)[C@@H](CC(C)C)NC(=O)[C@@H](C(C)C)NC(=O)[C@H](CC(C)C)NC1=O (cyclo(FLL[dV][dL])) showed an inhibition at 5 µM [1] of 41% and an inhibition at 5 µM [2] of 16%.

CC(C)C[C@@H]1NC(=O)[C@H](C(C)C)NC(=O)[C@H](CC(C)C)N(C)C(=O)[C@H](CC(C)C)NC(=O)[C@H](Cc2ccccc2)NC1=O (cyclo(FL[NMeL]VL)) gave an inhibition at 5 µM [1] of 45% and an inhibition at 5 µM [2] of 2%.

In the case of CC(C)C[C@@H]1NC(=O)[C@H](Cc2ccccc2)NC(=O)[C@H](CC(C)C)NC(=O)[C@H](C(C)C)NC(=O)[C@@H](CC(C)C)NC1=O (cyclo(FL[dL]VL)), the inhibition at 5 µM [1] is reported as 24% and the inhibition at 5 µM [2] is reported as 74%.

Compound CC(C)C[C@@H]1NC(=O)[C@H](C(C)C)NC(=O)[C@H](CC(C)C)NC(=O)[C@H](CC(C)C)N(C)C(=O)[C@H](Cc2ccccc2)NC1=O (cyclo(F[NMeL]LVL)) has an IC50 [1] of 3 µM, an inhibition at 5 µM [1] of 55% and an IC50 [2] of 2 µM. For the same compound, the inhibition at 5 µM [2] was 59% and the IC50 [3] was 200 µM.

For CC(C)C[C@@H]1NC(=O)[C@@H](C(C)C)NC(=O)[C@H](CC(C)C)NC(=O)[C@H](CC(C)C)N(C)C(=O)[C@H](Cc2ccccc2)NC1=O (cyclo(F[NMeL]L[dV]L)), the inhibition at 5 µM [1] was 26% and the inhibition at 5 µM [2] was 2%.

In the case of CC(C)C[C@@H]1NC(=O)[C@H](C(C)C)NC(=O)[C@H](CC(C)C)NC(=O)[C@@H](CC(C)C)NC(=O)[C@H](Cc2ccccc2)NC1=O (cyclo(F[dL]LVL)), the inhibition at 5 µM [1] is reported as 73% and the inhibition at 5 µM [2] is reported as 29%.

Work on CC(C)C[C@@H]1NC(=O)[C@@H](C(C)C)N(C)C(=O)[C@H](CC(C)C)NC(=O)[C@@H](CC(C)C)NC(=O)[C@H](Cc2ccccc2)NC1=O (cyclo(F[dL]L[dNMeV]L)) yielded an inhibition at 5 µM [1] of 21% and an inhibition at 5 µM [2] of 35%.

For CC(C)C[C@@H]1NC(=O)[C@@H](CC(C)C)NC(=O)[C@H](Cc2ccccc2)NC(=O)[C@H](CC(C)C)NC(=O)[C@@H](C(C)C)NC1=O (cyclo(F[dL]L[dV]L)), the inhibition at 5 µM [1] was 32% and the inhibition at 5 µM [2] was 13%.

In the case of CC(C)C[C@@H]1NC(=O)[C@H](C(C)C)NC(=O)[C@H](CC(C)C)N(C)C(=O)[C@@H](CC(C)C)NC(=O)[C@H](Cc2ccccc2)NC1=O (cyclo(F[dL][NMeL]VL)), the inhibition at 5 µM [1] is reported as 25% and the inhibition at 5 µM [2] is reported as 71%.

For CC(C)C[C@@H]1NC(=O)[C@H](C(C)C)NC(=O)[C@@H](CC(C)C)NC(=O)[C@@H](CC(C)C)NC(=O)[C@H](Cc2ccccc2)NC1=O (cyclo(F[dL][dL]VL)), the IC50 [1] was 5 µM, the inhibition at 5 µM [1] was 51% and the IC50 [2] was 1.4 µM. The inhibition at 5 µM [2] was 78% and the IC50 [3] was 200 µM.

With CC(C)C[C@@H]1NC(=O)[C@H](CC(C)C)NC(=O)[C@@H](Cc2ccccc2)NC(=O)[C@@H](CC(C)C)NC(=O)[C@@H](C(C)C)NC1=O (cyclo(LL[dV][dL][dF])) the inhibition at 5 µM [1] was 67% and the inhibition at 5 µM [2] was 34%.

Work on CC(C)C[C@@H]1NC(=O)[C@H](Cc2ccccc2)NC(=O)[C@H](CC(C)C)NC(=O)[C@@H](C(C)C)N(C)C(=O)[C@H](CC2CCCCC2)NC1=O (cyclo([Cha][dNMeV]LFL)) yielded an inhibition at 5 µM [1] of 45% and an inhibition at 5 µM [2] of 52%.

For CC(C)C[C@@H]1NC(=O)[C@H](C(C)C)NC(=O)[C@H](CC(C)C)NC(=O)[C@@H](CC(C)C)N(C)C(=O)[C@H](Cc2ccccc2)NC1=O (cyclo([dNMeL]LVLF)), the IC50 [1] was 3.5 µM, the inhibition at 5 µM [1] was 52% and the IC50 [2] was 3.8 µM. The inhibition at 5 µM [2] was 51% and the IC50 [3] was 200 µM.
